Source: patent EP0265400A2, “Topical radioprotective gel for mucosa” (priority 1986, dated 1988)
Where “and” joins values, the source holds several entries; their conditions need not be identical. Identical values can stand only once. Entries after “also recorded” stand apart in the source; their conditions may differ. Blank lines part the entries; values can stand above or below the molecule they belong to. Positions of bridges follow the written chain, without caps; N, C: chain ends. Residues, ends and D or L forms follow the SMILES beside them.

Legend:
[1] = system: Irradiation-induced lesions in the mucosa; test: Radioprotective effect of rectally applied gel on irradiated rectal mucosa: histological grading and body weight; type: in vivo, Wistar rats; conditions: for Body weight change / Change of glandular structure / Fibrosis / Ulceration - abscessa development in crypts / Sum of parameters: one value per rat; for Sum of parameters: histological grading
Procedure: For studies of the radioprotective effect of TGLVP Wistar rats (body weight 187-394 g) were used and treated in pairs at the same time. In each pair, one rat was treated rectally with TGLVP, while the other rat, the control rat, was given CMC solution rectally. The gels were applied in the same manner as described above. For anaesthesia, nembutal was given intraperitoneally. The rats were irradiated with 240 kV X-rays (0.2 Cu filtration), using AP and PA fields in size 4 × 3 cm. This gave a uniform dose in the lower part of the abdomen corresponding to the position of the rectum. 10 Gy were given on day 1, and 10 Gy on day 4. The rats were killed 14 days after the treatment, and the rectum was removed for histological analysis. The rats were weighed before treatment and when they were killed. 10 rats were treated with 1600 µg TGLVP 15 min before irradiation (Tables IV and V) 5 rats were treated with 800 µg TGLVP 15 min before irradiation (Table V) 10 rats were given 1600 µg TGLVP 30 min before treatment (Table III) 5 rats were given 3200 µg TGLVP 15 min before treatment (Table I) 5 rats were given 3200 µg TGLVP 30 min before treatment (Table II)
Histological grading (sum of parameters) was performed in accordance with an evaluation system in which 0 is the normal structure and 6 indicates maximum change. Irradiation-induced lesions in the mucosa were determined arbitrarily by means of the following parameters: • 1: The extent of fibrosis in the mucosa and submucosa. • 2: The change of glandular structure in the mucosa. • 3: Ulcerations in the mucosa or abscesses in mucosal crypts.

[2] = Studies of systemic circulation (dose titration) after rectal application of the gel: arterial pressure and pulse rate; type: in vivo, Wistar rats
Procedure: The concentration of vasoconstrictive substance in the radioprotective gels according to the invention was determined according to the desire to provide a local vasoconstrictive effect (with subsequent hypoxia) in the mucosa, but without general secondary effect, such as blood pressure increase and bradycardia. To achieve this, dose titration studies of the different vasoconstrictive substances were carried out, i.e. the dose just below the threshold of general circulatory response was defined. Due to interaction (electrostatic binding) between the active substance and the different thickening agents, the dose for a specific vasoconstrictive substance varied depending upon the thickening agent employed.
For studies of systematic circulation, Wistar rats (body weight 177-296 g) were used. TGLVP was administered rectally by means of a Nelaton-Foley catheter inserted through the anus until the balloon was 5 cm away from the anus. The balloon was then filled to ensure that the catheter stayed in position and to prevent TGLVP from reaching the upper parts of the bowel. TGLVP was dissolved in a 1% by weight aqueous solution of sodium carboxymethyl cellulose (CMC) and was in contact with all parts of the mucosa during the test. The volume applied amounted to half a milliliter. Three dose levels of TGLVP were tested, i.e. 800 µg, 1600 µg and 3200 µg. For each dose level, use was made of five rats and a corresponding number of controls which were given CMC solution only. For anaesthesia, nembutal was used intraperitoneally. Mean values for arterial pressure and puls rate were recorded by means of a catheter in the aorta via the femoral artery.
Dose titration was carried out in a similar manner on AVP, LVP, TGLVP with other thickening agents, Angiotensin II and norepinephrine.

[3] = TGLVP 3200 µg/g in 1 weight% carboxymethyl cellulose, dose 1600 µg, 30 min before irradiation
[4] = TGLVP 3200 µg/g in 1 weight% carboxymethyl cellulose, dose 1600 µg, 30 min before irradiation, grade 0-6
[5] = TGLVP 6400 µg/g in 1 weight% carboxymethyl cellulose, dose 3200 µg, 15 min before irradiation, grade 0-6
[6] = TGLVP 6400 µg/g in 1 weight% carboxymethyl cellulose, dose 3200 µg, 30 min before irradiation
[7] = TGLVP 6400 µg/g in 1 weight% carboxymethyl cellulose, dose 3200 µg, 30 min before irradiation, grade 0-6

- circulatory changes ([2]; 128 µg in 0.9% by weight hydroxypropyl cellulose solution): without changes
- circulatory changes ([2]; 128 µg in 1.2% by weight hydroxyethyl cellulose solution): no circulatory changes
- circulatory changes ([2]; 256 µg in 0.9% by weight hydroxypropyl cellulose solution): without changes
- pulse rate ([2]; 256 µg in 1.2% by weight hydroxyethyl cellulose solution, at 5 minutes after application): decrease in pulse rate
- circulatory changes (pulse) ([2]; 512 µg in 0.9% by weight hydroxypropyl cellulose solution, 15-120 minutes after application): gave a bradycardia
- pulse rate ([2]; 512 µg in 1.2% by weight hydroxyethyl cellulose solution, 10-45 minutes after application): bradycardia
Molecule: NCCCC[C@H](NC(=O)[C@@H]1CCCN1C(=O)[C@@H]1CSSC[C@H](NC(=O)CNC(=O)CNC(=O)CN)C(=O)N[C@@H](Cc2ccc(O)cc2)C(=O)N[C@@H](Cc2ccccc2)C(=O)N[C@@H](CCC(N)=O)C(=O)N[C@@H](CC(N)=O)C(=O)N1)C(=O)NCC(N)=O [TGLVP, triglycyl-lysine-vasopressin] (H-GGGCYFQNCPKG-NH2; disulfide 4-9)
- function of the gel in radioprotective experiments ([1]; 1600-6400 µg per g of 1% by weight carboxymethyl cellulose in sterile deionised water): found to function as intended
- Body weight change [1, 3]: 14 g and 3 g and 18 g and 7 g and 5 g
- Change of glandular structure [1, 4]: 2 (4×) and 4
- Fibrosis [1, 4]: 4 (4×) and 2
- Ulceration - abscessa development in crypts [1, 4]: 0 (3×) and 2 (2×)
- Sum of parameters [1, 3]: 6 (4×) and 10
- Fibrosis ([1]; TGLVP 6400 µg/g in 1 weight% carboxymethyl cellulose, dose 3200 µg rectally 15 min before irradiation (10 Gy day 1 and day 4), grade 0 normal, 6 maximum change, killed 14 days after treatment): 4 and 2 (4×)
- Body weight change ([1]; TGLVP 6400 µg/g in 1 weight% carboxymethyl cellulose, dose 3200 µg, 15 min before irradiation, before treatment vs when killed): 9 g and 4 g and 7 g and 15 g and 12 g
- Change of glandular structure [1, 5]: 4 and 2 (2×) and 0 (2×)
- Ulceration - abscessa development in crypts [1, 5]: 4 and 2 and 0 (3×)
- Sum of parameters ([1]; TGLVP 6400 µg/g in 1 weight% carboxymethyl cellulose, dose 3200 µg, 15 min before irradiation): 12 and 6 and 2 (2×) and 4
- Body weight change [1, 6]: 24 g and 7 g and 13 g and -2 g and 38 g
- Change of glandular structure [1, 7]: 0 (2×) and 4 and 2 (2×)
- Fibrosis [1, 7]: 4
- Ulceration - abscessa development in crypts [1, 7]: 0 (2×) and 4 and 2 (2×)
- Sum of parameters [1, 6]: 4 and 12 and 6 (2×) and 8
- radioprotective effect ([1]; dose of 1600 µg, rats): maximum radioprotective effect
- radioprotection to the mucosa as compared with the controls ([1]; dose of 3200, 1600 or 800 µg, irradiation 15 or 30 min after administration, summary of Tables I-V): gave radioprotection to the mucosa
- radioprotection: effect of higher dose or longer time ([1]; increase of dose from 1600 µg to 3200 µg, or of time from 15 to 30 min, compared with 1600 µg at 15 min, Tables I-IV): does not seem to give a better result
- protection, from body weight values ([1]; increasing the dose from 800 µg to 1600 µg, 15 min before irradiation, Table V): improved protection
- blood pressure ([2]; 256 µg in 1.2% by weight hydroxyethyl cellulose solution, at 75 and 90 minutes after application): gave a rise in blood pressure
- blood pressure ([2]; 512 µg in 1.2% by weight hydroxyethyl cellulose solution, 30 and 45 minutes after application): gave a rise in blood pressure
- systemic circulatory response in the form of blood pressure increase or lower pulse ([2]; 800 µg rectally in 1% by weight sodium carboxymethyl cellulose (CMC)): no systemic circulatory response
- systemic circulatory response in the form of blood pressure increase or lower pulse ([2]; 1600 µg rectally in 1% by weight sodium carboxymethyl cellulose (CMC)): no systemic circulatory response; also recorded: without general circulatory responses
- systemic circulatory response in the form of blood pressure increase or lower pulse ([2]; 3200 µg rectally in 1% by weight sodium carboxymethyl cellulose (CMC)): caused blood pressure increase in several animals

Molecule: NC[C@H](O)c1ccc(O)c(O)c1 [norepinephrine]
- function of the gel in radioprotective experiments ([1]; 2 mg per g of 0.6% by weight hydroxyethyl cellulose in sterile deionised water): found to function as intended
- cases with radioprotection to the mucosa, as compared with the controls ([1]; dose of 1 mg, irradiation 15 min after administration, Table IX): 5 out of 6

Molecule: Angiotensin II
- function of the gel in radioprotective experiments ([1]; 250 µg per g of 0.6% by weight hydroxyethyl cellulose in sterile deionised water): found to function as intended
- cases with radioprotection to the mucosa, as compared with the controls ([1]; dose of 125 µg, irradiation 15 min after administration, Table VIII): 5 out of 6

Molecule: Angiotensin II (DRVYIHPF; Angiotensin-2; UniProt P01019 25-32, looked up)
- changes in blood pressure or pulse rate ([2]; doses of 0.1 µg to 500 µg in 0.6% by weight hydroxyethyl cellulose solution, even at the highest dose level, 75 or 140 minutes of follow-up): no significant changes in blood pressure or pulse rate

Molecule: arginine-vasopressin [AVP]
- function of the gel in radioprotective experiments ([1]; 10 µg per g of 0.2% by weight carboxypolymethylene in sterile deionised water): found to function as intended
- radioprotection to the mucosa as compared with the controls ([1]; dose of 10 µg, irradiation 10 min after administration, Table VI, histological grading only): gave radioprotection to the mucosa
- influence on blood pressure ([2]; 25 µg in 0.2% by weight carboxypolymethylene solution, pulse rate not measured): without any significant influence on blood pressure
- influence on blood pressure ([2]; 50 µg in 0.2% by weight carboxypolymethylene solution, pulse rate not measured): without any significant influence on blood pressure

Molecule: lysine-vasopressin [LVP]
- function of the gel in radioprotective experiments ([1]; 32 µg per g of 1.2% by weight hydroxyethyl cellulose in sterile deionised water): found to function as intended
- radioprotection to the mucosa ([1]; dose of 16 µg, irradiation 15 min after administration, Table VII): gave radioprotection to the mucosa
- changes in systemic circulation ([2]; 4 µg in 1.2% by weight hydroxyethyl cellulose solution): without significant changes in systemic circulation
- changes in systemic circulation ([2]; 8 µg in 1.2% by weight hydroxyethyl cellulose solution): without significant changes in systemic circulation
- change in blood pressure ([2]; 10 µg in 0.2% by weight carboxypolymethylene solution, pulse rate not measured): without any significant change in blood pressure
- change in blood pressure ([2]; 10 µg in 1% by weight sodiumcarboxymethyl cellulose (CMC) solution, pulse rate not measured): without any change in blood pressure
- changes in systemic circulation ([2]; 16 µg in 1.2% by weight hydroxyethyl cellulose solution): without significant changes in systemic circulation; also recorded: caused no significant change in systemic circulation
- change in blood pressure ([2]; 20 µg in 0.2% by weight carboxypolymethylene solution, pulse rate not measured): without any significant change in blood pressure
- change in blood pressure ([2]; 20 µg in 1% by weight sodiumcarboxymethyl cellulose (CMC) solution, pulse rate not measured): without any change in blood pressure
- pulse rate ([2]; 32 µg in 1.2% by weight hydroxyethyl cellulose solution): No decrease in pulse rate was noted
- blood pressure ([2]; 32 µg in 1.2% by weight hydroxyethyl cellulose solution, 5, 10, 15, 20, 25, 30, 45, 75 and 90 minutes after application): caused a rise in blood pressure
- change in blood pressure ([2]; 40 µg in 0.2% by weight carboxypolymethylene solution, significant at 10, 15, 20, 25, 45 and 60 minutes after application): gave a rise in blood pressure
- change in blood pressure ([2]; 40 µg in 1% by weight sodiumcarboxymethyl cellulose (CMC) solution, pulse rate not measured): without any change in blood pressure
- change in blood pressure ([2]; 80 µg in 0.2% by weight carboxypolymethylene solution, significant 5-60 minutes after application): gave a rise in blood pressure
- change in blood pressure ([2]; 80 µg in 1% by weight sodiumcarboxymethyl cellulose (CMC) solution, 5-45 minutes after application): caused a rise in blood pressure
